Results as given in patent US11572399B2, “Long-acting GIP peptide analogues” (University of Copenhagen, priority 2017, dated 2023).
Where two headings read alike, the source gives them in different places. Peptide text beside a SMILES is read from it. * marks the point of attachment. C16 diacid = O=C(O)CCCCCCCCCCCCCCC(=O)*

Experiments:
human GIP receptor [1] = biological target: T1, human GIP receptor (Homo sapiens, UniProt P48546); assay: cAMP accumulation assay, agonism (ligand alone); type: cell-based; settings: Table 1; for Emax: COS-7, intrinsic cAMP activity
T1 construct: host or cells: COS-7, transient transfection (calcium phosphate), cDNA in pCMV-Script
T1 sequence (P48546 22-466): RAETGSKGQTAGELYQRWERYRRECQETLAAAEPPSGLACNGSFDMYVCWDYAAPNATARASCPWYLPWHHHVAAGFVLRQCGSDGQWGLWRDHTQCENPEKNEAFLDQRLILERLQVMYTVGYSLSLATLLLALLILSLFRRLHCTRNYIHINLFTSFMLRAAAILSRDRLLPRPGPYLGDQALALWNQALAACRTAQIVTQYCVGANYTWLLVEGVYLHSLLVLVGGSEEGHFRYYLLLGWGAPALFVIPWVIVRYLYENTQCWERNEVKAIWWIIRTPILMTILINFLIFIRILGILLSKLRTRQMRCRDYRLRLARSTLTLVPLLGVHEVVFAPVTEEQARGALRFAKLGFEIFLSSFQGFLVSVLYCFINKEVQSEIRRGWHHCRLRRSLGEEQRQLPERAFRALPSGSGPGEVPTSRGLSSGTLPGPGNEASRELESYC

human GIP receptor [2] = biological target: T1, human GIP receptor; assay: 125I-human GIP competition binding assay, in the presence and absence of 2% HSA; settings: for Fold change HSA (2%)/Casein (0.1%): IC50 (plus HSA)/IC50 (minus HSA); for Binding (+/−HSA) Fold: fold change +HSA/−HSA;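 on all read-outs here: nonspecific binding taken as radioligand bound to untransfected cells, IC50 obtained from nonlinear regression fits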
human GIP receptor [3] = biological target: T1, human GIP receptor; assay: cAMP accumulation assay, antagonism of a GIP-mediated cAMP response (50-80% of max); type: cell-based; settings: for Fold change of IC50 versus GIP(5-30)NH2: fold change of IC50 from GIP(5-30)NH2
Method: The day after, the cells were washed twice with Hepes buffered saline (HBS) buffer and incubated with HBS and 1 mM 3-isobutyl-1-methylxanthine (IBMX) for 30 min at 37° C. […] The HitHunter™ cAMP XS assay (DiscoveRx) was carried out according to the manufacturer's instructions.

[4] = given as log EC50 (negative sign), read-out: cAMP agonism EC50 (log) (converted)
[5] = heterologous competition binding, transiently transfected COS-7 cells expressing the human GIP receptor, read-out: Binding
[6] = transiently transfected COS-7 cells, Table 1 and text, read-out: cAMP antagonism nM (IC50, antagonistic potency)
[7] = antagonism of GIP-mediated cAMP response, COS-7 cells, read-out: cAMP accumulation IC50

| SMILES | Emax (human GIP receptor [1]; COS-7 cells) | EC50 (human GIP receptor [1]; [4]) | Fold change HSA (2%)/Casein (0.1%) (human GIP receptor [2]) | Ki (human GIP receptor [2]; absence of HSA) | Binding (+/−HSA) Fold (human GIP receptor [2]) | IC50 (human GIP receptor [2]; [5]) | Fold change of IC50 versus GIP(5-30)NH2 (human GIP receptor [3]) | IC50 (human GIP receptor [3]; [6]) | IC50 (human GIP receptor [2]; binding in 0.1% casein (absence of HSA), log value, read-out: logIC50 0.1% casein (converted)) | IC50 (human GIP receptor [3]; [7]) | Ki (human GIP receptor [2]; presence of 2% HSA) | EC50 (human GIP receptor [1]; COS-7 cells, read-out: cAMP agonism nM (EC50)) | Fold change in affinity, IC50 (plus HSA)/IC50 (minus HSA) (human GIP receptor [2]; presence vs absence of 2% HSA, proxy for albumin binding) | Ability to antagonize the GIP-mediated cAMP response (in words) (human GIP receptor [3]) |
| --- | --- | --- | --- | --- | --- | --- | --- | --- | --- | --- | --- | --- | --- | --- |
| CC[C@H](C)[C@H](NC(=O)[C@H](CO)NC(=O)[C@H](Cc1ccc(O)cc1)NC(=O)[C@H](CC(=O)O)NC(=O)[C@H](CO)NC(=O)[C@@H](NC(=O)[C@H](Cc1ccccc1)NC(=O)[C@@H](N)[C@@H](C)O)[C@@H](C)CC)C(=O)N[C@@H](C)C(=O)N[C@@H](CCSC)C(=O)N[C@@H](CCCCNC(=O)CCCCCCCCCCCCCCC(=O)O)C(=O)N[C@@H](CCCCN)C(=O)N[C@H](C(=O)N[C@@H](Cc1c[nH]cn1)C(=O)N[C@@H](CCC(N)=O)C(=O)N[C@@H](CCC(N)=O)C(=O)N[C@@H](CC(=O)O)C(=O)N[C@@H](Cc1ccccc1)C(=O)N[C@H](C(=O)N[C@@H](CC(N)=O)C(=O)N[C@@H](Cc1c[nH]c2ccccc12)C(=O)N[C@@H](CC(C)C)C(=O)N[C@@H](CC(C)C)C(=O)N[C@@H](C)C(=O)N[C@@H](CCC(N)=O)C(=O)N[C@@H](CCCCN)C(N)=O)C(C)C)[C@@H](C)CC [AT177, [hGIP(5-30)NH2[D15K]-C16diacid/15]] (H-TFISDYSIAMK(C16 diacid)KIHQQDFVNWLLAQK-NH2; N-terminus assumed) | 30% | 100 nM | 3.8 | 117 nM | 3.8 | 134 nM | 1.3 | 59 nM | – | – | – | – | – | – |
| CC[C@H](C)[C@H](NC(=O)[C@H](CO)NC(=O)[C@H](Cc1ccc(O)cc1)NC(=O)[C@H](CC(=O)O)NC(=O)[C@H](CO)NC(=O)[C@@H](NC(=O)[C@H](Cc1ccccc1)NC(=O)[C@@H](N)[C@@H](C)O)[C@@H](C)CC)C(=O)N[C@@H](C)C(=O)N[C@@H](CCSC)C(=O)N[C@@H](CC(=O)O)C(=O)N[C@@H](CCCCN)C(=O)N[C@@H](CCCCNC(=O)CCCCCCCCCCCCCCC(=O)O)C(=O)N[C@@H](Cc1c[nH]cn1)C(=O)N[C@@H](CCC(N)=O)C(=O)N[C@@H](CCC(N)=O)C(=O)N[C@@H](CC(=O)O)C(=O)N[C@@H](Cc1ccccc1)C(=O)N[C@H](C(=O)N[C@@H](CC(N)=O)C(=O)N[C@@H](Cc1c[nH]c2ccccc12)C(=O)N[C@@H](CC(C)C)C(=O)N[C@@H](CC(C)C)C(=O)N[C@@H](C)C(=O)N[C@@H](CCC(N)=O)C(=O)N[C@@H](CCCCN)C(N)=O)C(C)C [AT178, [hGIP(5-30)NH2[I17K]-C16diacid/17]] (H-TFISDYSIAMDKK(C16 diacid)HQQDFVNWLLAQK-NH2; N-terminus assumed) | 0% | – | 3.0 | – | 4.5 | 66 nM | 1 | 33 nM | 63.1 nM | 27.5 nM | – | – | – | – |
| CC[C@H](C)[C@H](NC(=O)[C@H](CO)NC(=O)[C@H](Cc1ccc(O)cc1)NC(=O)[C@H](CC(=O)O)NC(=O)[C@H](CO)NC(=O)[C@@H](NC(=O)[C@H](Cc1ccccc1)NC(=O)[C@@H](N)[C@@H](C)O)[C@@H](C)CC)C(=O)N[C@@H](C)C(=O)N[C@@H](CCSC)C(=O)N[C@@H](CC(=O)O)C(=O)N[C@@H](CCCCN)C(=O)N[C@H](C(=O)N[C@@H](Cc1c[nH]cn1)C(=O)N[C@@H](CCCCNC(=O)CCCCCCCCCCCCCCC(=O)O)C(=O)N[C@@H](CCC(N)=O)C(=O)N[C@@H](CC(=O)O)C(=O)N[C@@H](Cc1ccccc1)C(=O)N[C@H](C(=O)N[C@@H](CC(N)=O)C(=O)N[C@@H](Cc1c[nH]c2ccccc12)C(=O)N[C@@H](CC(C)C)C(=O)N[C@@H](CC(C)C)C(=O)N[C@@H](C)C(=O)N[C@@H](CCC(N)=O)C(=O)N[C@@H](CCCCN)C(N)=O)C(C)C)[C@@H](C)CC [AT179, [hGIP(5-30)NH2[Q19K]-C16diacid/19]] (H-TFISDYSIAMDKIHK(C16 diacid)QDFVNWLLAQK-NH2; N-terminus assumed) | 32% | 100 nM | 3.6 | – | 6.3 | – | 2.1 | 89 nM | – | – | 2380 nM | – | – | – |
| CC[C@H](C)[C@H](NC(=O)[C@H](CO)NC(=O)[C@H](Cc1ccc(O)cc1)NC(=O)[C@H](CC(=O)O)NC(=O)[C@H](CO)NC(=O)[C@@H](NC(=O)[C@H](Cc1ccccc1)NC(=O)[C@@H](N)[C@@H](C)O)[C@@H](C)CC)C(=O)N[C@@H](C)C(=O)N[C@@H](CCSC)C(=O)N[C@@H](CC(=O)O)C(=O)N[C@@H](CCCCN)C(=O)N[C@H](C(=O)N[C@@H](Cc1c[nH]cn1)C(=O)N[C@@H](CCC(N)=O)C(=O)N[C@@H](CCCCNC(=O)CCCCCCCCCCCCCCC(=O)O)C(=O)N[C@@H](CC(=O)O)C(=O)N[C@@H](Cc1ccccc1)C(=O)N[C@H](C(=O)N[C@@H](CC(N)=O)C(=O)N[C@@H](Cc1c[nH]c2ccccc12)C(=O)N[C@@H](CC(C)C)C(=O)N[C@@H](CC(C)C)C(=O)N[C@@H](C)C(=O)N[C@@H](CCC(N)=O)C(=O)N[C@@H](CCCCN)C(N)=O)C(C)C)[C@@H](C)CC [AT180, [hGIP(5-30)NH2[Q20K]-C16diacid/20]] (H-TFISDYSIAMDKIHQK(C16 diacid)DFVNWLLAQK-NH2; N-terminus assumed) | 0% | – | 3.7 | – | 6.4 | – | 1.7 | 37 nM | – | – | – | – | – | – |
| CC[C@H](C)[C@H](NC(=O)[C@H](CO)NC(=O)[C@H](Cc1ccc(O)cc1)NC(=O)[C@H](CC(=O)O)NC(=O)[C@H](CO)NC(=O)[C@@H](NC(=O)[C@H](Cc1ccccc1)NC(=O)[C@@H](N)[C@@H](C)O)[C@@H](C)CC)C(=O)N[C@@H](C)C(=O)N[C@@H](CCSC)C(=O)N[C@@H](CC(=O)O)C(=O)N[C@@H](CCCCN)C(=O)N[C@H](C(=O)N[C@@H](Cc1c[nH]cn1)C(=O)N[C@@H](CCC(N)=O)C(=O)N[C@@H](CCC(N)=O)C(=O)N[C@@H](CCCCNC(=O)CCCCCCCCCCCCCCC(=O)O)C(=O)N[C@@H](Cc1ccccc1)C(=O)N[C@H](C(=O)N[C@@H](CC(N)=O)C(=O)N[C@@H](Cc1c[nH]c2ccccc12)C(=O)N[C@@H](CC(C)C)C(=O)N[C@@H](CC(C)C)C(=O)N[C@@H](C)C(=O)N[C@@H](CCC(N)=O)C(=O)N[C@@H](CCCCN)C(N)=O)C(C)C)[C@@H](C)CC [AT181, [hGIP(5-30)NH2[D21K]-C16diacid/21]] (H-TFISDYSIAMDKIHQQK(C16 diacid)FVNWLLAQK-NH2; N-terminus assumed) | 9% | – | 5.2 | – | 3.6 | 48 nM | 0.5 | 16 nM | – | – | – | 2 nM | 5.2 fold | highest antagonistic potencies |
| CC[C@H](C)[C@H](NC(=O)[C@H](CO)NC(=O)[C@H](Cc1ccc(O)cc1)NC(=O)[C@H](CC(=O)O)NC(=O)[C@H](CO)NC(=O)[C@@H](NC(=O)[C@H](Cc1ccccc1)NC(=O)[C@@H](N)[C@@H](C)O)[C@@H](C)CC)C(=O)N[C@@H](C)C(=O)N[C@@H](CCSC)C(=O)N[C@@H](CC(=O)O)C(=O)N[C@@H](CCCCN)C(=O)N[C@H](C(=O)N[C@@H](Cc1c[nH]cn1)C(=O)N[C@@H](CCC(N)=O)C(=O)N[C@@H](CCC(N)=O)C(=O)N[C@@H](CC(=O)O)C(=O)N[C@@H](CCCCNC(=O)CCCCCCCCCCCCCCC(=O)O)C(=O)N[C@H](C(=O)N[C@@H](CC(N)=O)C(=O)N[C@@H](Cc1c[nH]c2ccccc12)C(=O)N[C@@H](CC(C)C)C(=O)N[C@@H](CC(C)C)C(=O)N[C@@H](C)C(=O)N[C@@H](CCC(N)=O)C(=O)N[C@@H](CCCCN)C(N)=O)C(C)C)[C@@H](C)CC [AT182, [hGIP(5-30)NH2[F22K]-C16diacid/22]] (H-TFISDYSIAMDKIHQQDK(C16 diacid)VNWLLAQK-NH2; N-terminus assumed) | 13% | 1000 nM | 3.0 | – | 1.4 | 962 nM | 21.9 | 634 nM | – | 603 nM | – | – | – | – |
